# Reference: ChEMBL document CHEMBL4376834, “Discovery of 4H-Chromen-4-one Derivatives as a New Class of Selective Rho Kinase (ROCK) Inhibitors, which Showed Potent Activity in ex Vivo Diabetic Retinopathy Models” (J Med Chem, 2019)
# Experiments:
# [1] = target: Tyrosine-protein kinase Blk (Homo sapiens, UniProt P51451); assay: Inhibition of human full-length recombinant BLK M287V mutant using poly(Glu, Tyr) 4:1 as substrate measured after 40 mins in presence of [gamma33P]ATP by radiometric scintillation counting analysis
# [2] = target: STE20-like serine/threonine-protein kinase (Homo sapiens, UniProt Q9H2G2); assay: Inhibition of recombinant human SLK (1 to 373 residues) using RLGRDKYKTLRQI as substrate incubated for 40 mins in presence of [gamma33P]ATP by radiometric scintillation counting analysis
# [3] = target: Serine/threonine-protein kinase STK11 (Homo sapiens, UniProt Q15831); assay: Inhibition of recombinant full length human LKB1 using LSNLYHQGKFLQT as substrate after 40 mins in presence of [gamma-33ATP] by radiometric scintillation counting analysis
# Chain of Serine/threonine-protein kinase STK11 (Q15831 whole entry): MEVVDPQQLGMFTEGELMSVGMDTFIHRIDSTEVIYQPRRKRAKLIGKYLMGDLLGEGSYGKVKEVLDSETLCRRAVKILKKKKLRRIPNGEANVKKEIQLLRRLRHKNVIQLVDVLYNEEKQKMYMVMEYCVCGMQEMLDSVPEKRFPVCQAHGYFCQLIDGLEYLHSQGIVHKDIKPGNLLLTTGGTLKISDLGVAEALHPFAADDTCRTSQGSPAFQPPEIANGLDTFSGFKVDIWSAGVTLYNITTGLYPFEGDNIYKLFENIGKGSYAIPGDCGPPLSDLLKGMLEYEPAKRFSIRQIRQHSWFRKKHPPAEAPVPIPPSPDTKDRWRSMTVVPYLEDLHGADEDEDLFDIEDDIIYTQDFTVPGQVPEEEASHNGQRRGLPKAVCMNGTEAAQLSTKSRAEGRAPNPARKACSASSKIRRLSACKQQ
# [4] = Inhibition of human PIP4K2
# [5] = target: Ribosomal protein S6 kinase beta-1 (Homo sapiens, UniProt P23443, T412E); assay: Inhibition of recombinant human p70S6K T412E mutant (1 to 421 residues) using KKRNRTLTV as substrate measured after 40 mins in presence of [gamma33P]ATP by radiometric scintillation counting analysis
# LIM domain kinase 1 = LIM domain kinase 1 (Homo sapiens, UniProt P53667); assay: Inhibition of recombinant human LIMK1 (285 to 638 residues) using cofilin as substrate after 40 mins in presence of [gamma-33ATP] by radiometric scintillation counting analysis
# [6] = target: Serine/threonine-protein kinase PLK3 (Homo sapiens, UniProt Q9H4B4); assay: Inhibition of recombinant human Plk3 (19 to 301 residues) using casein as substrate incubated for 40 mins in presence of [gamma33P]ATP by radiometric scintillation counting analysis
# [7] = target: PI3-kinase p110-alpha/p85-alpha (Homo sapiens, UniProt P42336, E545K); assay: Inhibition of recombinant human full length PI3K p110alpha/p85alpha E545K mutant using phosphatidylinositol 4,5-bisphosphate as substrate incubated for 40 mins in presence of [gamma33P]ATP by radiometric scintillation counting analysis; type: protein-complex assay
# Chain of PI3-kinase p110-alpha/p85-alpha (P42336 whole entry E545K, looked up): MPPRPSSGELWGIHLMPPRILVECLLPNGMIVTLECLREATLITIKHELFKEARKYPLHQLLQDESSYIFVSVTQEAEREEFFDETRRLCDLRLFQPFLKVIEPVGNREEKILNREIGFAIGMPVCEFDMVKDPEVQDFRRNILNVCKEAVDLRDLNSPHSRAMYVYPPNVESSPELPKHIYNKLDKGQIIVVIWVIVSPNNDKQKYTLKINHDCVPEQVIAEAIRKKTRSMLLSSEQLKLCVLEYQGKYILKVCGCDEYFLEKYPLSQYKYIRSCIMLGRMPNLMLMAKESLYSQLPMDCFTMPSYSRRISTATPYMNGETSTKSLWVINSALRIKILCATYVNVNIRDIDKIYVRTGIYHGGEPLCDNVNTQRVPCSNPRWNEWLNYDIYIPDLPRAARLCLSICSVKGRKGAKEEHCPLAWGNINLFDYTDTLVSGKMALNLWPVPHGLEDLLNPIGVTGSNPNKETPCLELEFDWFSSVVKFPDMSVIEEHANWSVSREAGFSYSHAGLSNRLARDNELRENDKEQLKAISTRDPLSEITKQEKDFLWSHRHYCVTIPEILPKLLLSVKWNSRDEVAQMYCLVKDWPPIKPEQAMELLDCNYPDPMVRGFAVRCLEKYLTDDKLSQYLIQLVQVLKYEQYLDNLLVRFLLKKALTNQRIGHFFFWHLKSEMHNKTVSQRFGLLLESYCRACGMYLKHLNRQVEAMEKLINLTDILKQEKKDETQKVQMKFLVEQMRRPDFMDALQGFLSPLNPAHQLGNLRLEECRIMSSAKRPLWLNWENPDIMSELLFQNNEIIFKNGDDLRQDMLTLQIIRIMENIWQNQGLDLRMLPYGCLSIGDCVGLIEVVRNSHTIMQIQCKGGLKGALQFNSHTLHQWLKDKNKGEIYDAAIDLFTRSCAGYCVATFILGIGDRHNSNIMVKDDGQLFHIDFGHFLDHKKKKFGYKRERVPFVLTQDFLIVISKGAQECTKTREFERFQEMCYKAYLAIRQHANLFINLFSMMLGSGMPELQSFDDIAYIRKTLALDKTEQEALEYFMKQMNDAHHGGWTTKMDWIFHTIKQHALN
# [8] = target: Mitogen-activated protein kinase 1 (Homo sapiens, UniProt P28482); assay: Inhibition of recombinant full length human MAPK1 using myelin basic protein as substrate incubated for 40 mins in presence of [gamma-33ATP by radiometric scintillation counting analysis
# [9] = target: Serine/threonine-protein kinase/endoribonuclease IRE1 (Homo sapiens, UniProt O75460); assay: Inhibition of human recombinant IRE1 (465 to end residues) using myelin basic protein as substrate after 40 mins by [gamma-33ATP] by radiometric scintillation counting analysis
# [10] = target: 5'-AMP-activated protein kinase catalytic subunit alpha-2 (Homo sapiens, UniProt P54646); assay: Inhibition of human full length AMPKalpha2 recombinant using AMARAASAAALAR as substrate incubated for 40 mins in presence of [gamma-33ATP] by radiometric scintillation counting analysis
# Aurora kinase B = Aurora kinase B (Homo sapiens, UniProt Q96GD4); assay: Inhibition of recombinant full length human AURORA-B using AKRRRLSSLRA as substrate incubated for 40 mins in presence of [gamma-33P]ATP and 10 uM ATP by radiometric scintillation counting analysis
# Chain of Aurora kinase B (Q96GD4 whole entry): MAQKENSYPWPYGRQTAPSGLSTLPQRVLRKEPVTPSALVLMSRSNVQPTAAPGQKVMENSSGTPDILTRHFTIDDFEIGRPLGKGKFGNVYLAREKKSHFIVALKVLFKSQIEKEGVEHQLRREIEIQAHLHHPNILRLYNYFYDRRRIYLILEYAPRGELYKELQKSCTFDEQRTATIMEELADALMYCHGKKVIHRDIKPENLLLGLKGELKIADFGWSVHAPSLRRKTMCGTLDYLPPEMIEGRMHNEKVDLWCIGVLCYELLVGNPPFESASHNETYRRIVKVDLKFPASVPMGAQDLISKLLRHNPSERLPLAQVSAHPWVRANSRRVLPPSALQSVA
# [11] = Inhibition of recombinant full length human PRAK R291E mutant using KKLRRTLSVA as substrate incubated for 40 mins in presence of [gamma33P]ATP by radiometric scintillation counting analysis
# [12] = target: Serine/threonine-protein kinase Chk2 (Homo sapiens, UniProt O96017); assay: Inhibition of recombinant human CHK2 (5 to end residues) using KKKVSRSGLYRSP as substrate incubated for 40 mins in presence of [gamma-33ATP] by radiometric scintillation counting analysis
# [13] = target: G protein-coupled receptor kinase 6 (Homo sapiens, UniProt P43250); assay: Inhibition of recombinant full length human GRK6 using casein as substrate after 40 mins in presence of [gamma-33ATP] by radiometric scintillation counting analysis
# Chain of G protein-coupled receptor kinase 6 (P43250 whole entry): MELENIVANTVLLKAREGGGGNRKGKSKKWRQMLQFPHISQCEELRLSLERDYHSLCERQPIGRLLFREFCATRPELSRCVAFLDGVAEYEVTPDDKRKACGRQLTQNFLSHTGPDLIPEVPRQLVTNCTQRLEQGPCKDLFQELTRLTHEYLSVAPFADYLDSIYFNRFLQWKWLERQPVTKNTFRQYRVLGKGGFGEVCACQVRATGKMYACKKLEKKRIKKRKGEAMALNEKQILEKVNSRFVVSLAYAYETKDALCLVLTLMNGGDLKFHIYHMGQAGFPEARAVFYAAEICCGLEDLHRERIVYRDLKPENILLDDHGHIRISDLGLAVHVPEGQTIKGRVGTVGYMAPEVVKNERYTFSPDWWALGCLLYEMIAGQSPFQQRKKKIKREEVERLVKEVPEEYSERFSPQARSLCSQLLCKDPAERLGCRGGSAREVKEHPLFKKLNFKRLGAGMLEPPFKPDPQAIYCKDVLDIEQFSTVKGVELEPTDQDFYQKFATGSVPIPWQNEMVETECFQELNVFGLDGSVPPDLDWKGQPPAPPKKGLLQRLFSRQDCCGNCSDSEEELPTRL
# [14] = target: Leucine-rich repeat serine/threonine-protein kinase 2 (Homo sapiens, UniProt Q5S007); assay: Inhibition of recombinant human LRRK2 (970 to end residues) using RLGRDKYKTLRQI as substrate after 40 mins in presence of [gamma-33ATP] by radiometric scintillation counting analysis
# Chain of Leucine-rich repeat serine/threonine-protein kinase 2 (Q5S007 whole entry): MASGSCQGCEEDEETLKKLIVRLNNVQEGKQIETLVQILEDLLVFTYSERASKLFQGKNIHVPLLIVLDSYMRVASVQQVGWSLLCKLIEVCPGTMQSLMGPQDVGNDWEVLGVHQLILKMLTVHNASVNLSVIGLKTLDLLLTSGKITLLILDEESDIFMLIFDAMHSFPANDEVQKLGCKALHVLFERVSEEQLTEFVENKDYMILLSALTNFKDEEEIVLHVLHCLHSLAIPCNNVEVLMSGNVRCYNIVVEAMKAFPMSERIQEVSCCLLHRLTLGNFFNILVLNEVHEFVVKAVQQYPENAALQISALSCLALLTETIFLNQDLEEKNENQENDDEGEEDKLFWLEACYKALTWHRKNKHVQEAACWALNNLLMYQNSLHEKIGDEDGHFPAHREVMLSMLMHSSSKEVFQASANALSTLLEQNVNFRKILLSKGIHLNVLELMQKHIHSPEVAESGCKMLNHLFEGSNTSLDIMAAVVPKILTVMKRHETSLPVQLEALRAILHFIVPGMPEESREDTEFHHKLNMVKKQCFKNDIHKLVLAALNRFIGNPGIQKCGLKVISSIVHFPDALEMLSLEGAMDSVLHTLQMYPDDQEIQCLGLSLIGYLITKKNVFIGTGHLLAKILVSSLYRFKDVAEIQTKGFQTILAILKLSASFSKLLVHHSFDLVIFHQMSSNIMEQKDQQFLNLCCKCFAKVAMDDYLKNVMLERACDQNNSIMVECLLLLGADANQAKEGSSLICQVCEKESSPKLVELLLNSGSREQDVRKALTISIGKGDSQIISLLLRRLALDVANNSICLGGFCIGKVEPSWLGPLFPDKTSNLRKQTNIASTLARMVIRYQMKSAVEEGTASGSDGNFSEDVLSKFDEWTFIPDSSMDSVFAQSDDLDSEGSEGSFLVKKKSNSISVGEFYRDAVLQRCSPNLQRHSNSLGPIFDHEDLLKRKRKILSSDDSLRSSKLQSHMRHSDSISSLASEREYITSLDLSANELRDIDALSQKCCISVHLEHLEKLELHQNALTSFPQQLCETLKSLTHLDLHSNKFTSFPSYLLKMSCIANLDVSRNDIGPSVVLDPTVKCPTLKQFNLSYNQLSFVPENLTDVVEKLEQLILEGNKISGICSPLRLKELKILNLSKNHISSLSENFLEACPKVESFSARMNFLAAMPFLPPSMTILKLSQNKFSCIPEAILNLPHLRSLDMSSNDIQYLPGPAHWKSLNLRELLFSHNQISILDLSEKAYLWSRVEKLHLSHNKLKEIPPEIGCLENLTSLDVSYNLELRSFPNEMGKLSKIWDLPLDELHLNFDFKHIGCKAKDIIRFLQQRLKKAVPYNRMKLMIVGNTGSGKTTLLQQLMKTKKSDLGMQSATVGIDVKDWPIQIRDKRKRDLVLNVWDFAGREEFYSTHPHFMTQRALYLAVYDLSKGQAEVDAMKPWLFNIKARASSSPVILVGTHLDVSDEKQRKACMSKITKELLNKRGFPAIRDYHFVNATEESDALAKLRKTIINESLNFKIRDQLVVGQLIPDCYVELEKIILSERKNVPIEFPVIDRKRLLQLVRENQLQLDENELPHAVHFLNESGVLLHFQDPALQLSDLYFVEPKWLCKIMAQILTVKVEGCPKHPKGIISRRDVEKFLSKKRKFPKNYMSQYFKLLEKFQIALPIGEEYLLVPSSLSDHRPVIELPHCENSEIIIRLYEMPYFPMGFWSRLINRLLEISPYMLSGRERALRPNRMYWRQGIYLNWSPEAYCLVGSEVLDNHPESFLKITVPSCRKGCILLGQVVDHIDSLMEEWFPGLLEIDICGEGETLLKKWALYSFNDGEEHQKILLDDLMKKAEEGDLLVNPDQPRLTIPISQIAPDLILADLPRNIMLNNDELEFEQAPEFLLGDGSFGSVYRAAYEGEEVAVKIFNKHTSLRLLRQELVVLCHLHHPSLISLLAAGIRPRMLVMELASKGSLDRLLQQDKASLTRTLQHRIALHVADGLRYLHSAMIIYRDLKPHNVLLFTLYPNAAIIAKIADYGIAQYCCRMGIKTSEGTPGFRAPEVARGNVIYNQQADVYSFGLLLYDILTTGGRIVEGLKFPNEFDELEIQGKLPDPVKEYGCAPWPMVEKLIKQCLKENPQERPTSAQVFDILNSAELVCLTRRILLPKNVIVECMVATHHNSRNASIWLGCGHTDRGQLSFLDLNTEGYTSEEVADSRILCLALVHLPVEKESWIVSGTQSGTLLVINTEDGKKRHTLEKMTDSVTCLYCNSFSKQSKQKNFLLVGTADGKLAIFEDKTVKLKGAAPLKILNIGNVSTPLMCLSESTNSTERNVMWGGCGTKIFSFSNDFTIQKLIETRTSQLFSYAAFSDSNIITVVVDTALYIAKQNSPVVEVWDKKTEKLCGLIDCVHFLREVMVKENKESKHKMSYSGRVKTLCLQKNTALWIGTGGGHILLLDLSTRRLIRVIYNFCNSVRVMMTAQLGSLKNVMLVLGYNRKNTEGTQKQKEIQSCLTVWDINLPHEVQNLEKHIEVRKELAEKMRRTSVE
# [15] = target: Beta-adrenergic receptor kinase 1 (Homo sapiens, UniProt P25098); assay: Inhibition of recombinant full length human GRK2 using casein as substrate after 40 mins in presence of [gamma-33ATP] by radiometric scintillation counting analysis
# [16] = target: Serine/threonine-protein kinase PRP4 homolog (Homo sapiens, UniProt Q13523); assay: Inhibition of recombinant human PRP4 (663 to end residues) using casein as substrate incubated for 40 mins in presence of [gamma33P]ATP by radiometric scintillation counting analysis
# [17] = target: Cyclin-dependent kinase 5/CDK5 activator 1 (Homo sapiens, UniProt Q00535); assay: Inhibition of recombinant full length human CDK5/p25 using histone H1 as substrate incubated for 40 mins in presence of [gamma-33ATP] by radiometric scintillation counting analysis; type: protein-complex assay
# [18] = target: Protein kinase C iota type (Homo sapiens, UniProt P41743); assay: Inhibition of recombinant full-length human PKCiota using ERMRPRKRQGSVRR as substrate incubated for 40 mins in presence of [gamma33P]ATP by radiometric scintillation counting analysis
# [19] = target: Dual specificity mitogen-activated protein kinase kinase 6 (Homo sapiens, UniProt P52564); assay: Inhibition of recombinant human MKK6 (4 to end residues) using SAPK2 as substrate incubated for 40 mins by radiometric scintillation counting analysis
# [20] = target: Glycogen synthase kinase-3 beta (Homo sapiens, UniProt P49841); assay: Inhibition of human GSK-3beta H350L mutant (2 to end residues) using YRRAAVPPSPSLSR as substrate after 40 mins by [gamma-33ATP] radiometric assay
# [21] = target: Serine/threonine-protein kinase Nek11 (Homo sapiens, UniProt Q8NG66); assay: Inhibition of recombinant full length human NEK11 using myelin basic protein as substrate measured after 40 mins in presence of [gamma33P]ATP by radiometric scintillation counting analysis
# [22] = target: Glycogen synthase kinase-3 alpha (Homo sapiens, UniProt P49840); assay: Inhibition of human GSK-3alpha S449A mutant (2 to end residues) using YRRAAVPPSPSLSR as substrate after 40 mins by [gamma-33ATP] radiometric scintillation counting analysis
# [23] = target: Tyrosine-protein kinase receptor TYRO3 (Homo sapiens, UniProt Q06418); assay: Inhibition of recombinant human RSE (451 to end residues) using KVEKIGEGTYGVV as substrate incubated for 40 mins in presence of [gamma33P]ATP by radiometric scintillation counting analysis
# [24] = target: Mitogen-activated protein kinase kinase kinase 5 (Homo sapiens, UniProt Q99683); assay: Inhibition of human recombinant ASK1 (649 to 946 residues) using myelin as substrate incubated for 40 mins in presence of [gamma-33ATP] by radiometric scintillation counting analysis
structure (smiles),measurement,setting,value
CN(C)c1ccc(C(=O)Nc2cccc(NC(=O)COc3ccc4c(=O)ccoc4c3)c2)cc1,IC50,[1],> 10 µM
same,IC50,[2],> 10 µM
same,IC50,[3],> 10 µM
same,IC50,[4],> 10 µM
same,IC50,[5],> 10 µM
same,IC50,LIM domain kinase 1,> 10 µM
same,IC50,[6],> 10 µM
same,IC50,[7],> 10 µM
same,IC50,[8],> 10 µM
same,IC50,[9],> 10 µM
same,IC50,[10],> 10 µM
same,IC50,Aurora kinase B,1.24 µM
same,IC50,[11],> 10 µM
same,IC50,[12],> 10 µM
same,IC50,[13],> 10 µM
same,IC50,[14],> 10 µM
same,IC50,[15],> 10 µM
same,IC50,[16],> 10 µM
same,IC50,[17],> 10 µM
same,IC50,[18],> 10 µM
same,IC50,[19],> 10 µM
same,IC50,[20],> 10 µM
same,IC50,[21],> 10 µM
same,IC50,[22],> 10 µM
same,IC50,[23],> 10 µM
same,IC50,[24],> 10 µM
